A short description of data set [1]: Acute toxicity (LD50) in dogs. To be noted: dog, in vivo, po, Dogs (Beagles).
For data set [2], the system named is dogs suffering from Goldblatt hypertension. The note with it: 10 mg/kg oral.
Description: Nicardipine hydrochloride was used as a control. The dose was 5 ml/kg. Commercially available tablets were given as they were by oral administration. Female beagles suffering from Goldblatt hypertension of "one clip one kidney" type were used. […] The blood pressure and heart rate were measured in the artery of the tail of each dog in a closed manner with a device for continuously measuring the systolic pressure (SCS-301; a product of Shimadzu Seisakusho Ltd.). […] The effects of eperisone hydrochloride given once by oral administration on the blood pressure and heart beat were compared with those of nicardipine hydrochloride. The nine beagles were divided into three groups, i.e. a control group, a group to which 10 mg/kg of eperisone hydrochloride was given and another group to which 10 mg/kg of nicardipine hydrochloride was given. Nine beagles were subjected to the tests of all three groups. Namely, administration was discontinued at intervals of one week according to Latin square. The blood pressure and heart rate were measured before administration and then at specified intervals from one hour to five hours after administration. The analysis of variance was conducted by the time series analysis. The test groups were compared with the control group by Dunnet's method.
Data set [3] can be described thus: Acute toxicity (LD50) in rats. The note with it: rat, in vivo, Rats (SD).
A short description of data set [4]: Acute toxicity (LD50) in mice. The note with it: mouse, in vivo, Mice (ICR).
Data set [5] can be described thus: Solubility (physico-chemical properties). Type of data set: physicochemical.
Data set [6] concerns dogs suffering from Goldblatt hypertension. Kind of data set: Effect of single oral administration on blood pressure of dogs suffering from Goldblatt hypertension. The class given is in vivo, Female beagles. The note with it: 10 mg/kg oral; for reduction in the blood pressure / blood pressure after 3 h: once, after 3 h; for reduction in the blood pressure: result in words; for blood pressure after 3 h / blood pressure before administration: systolic pressure; for blood pressure after 3 h: control group 201±3 mmHg, unchanged after 5 h; for blood pressure before administration: artery of the tail. The method, then:
Nicardipine hydrochloride was used as a control. The dose was 5 ml/kg.

Counter-ions that a name gives are not always drawn.

Results on two compounds are retold here after patent US5002958A, “Hypotensive agent” (priority 1987, dated 1991).

In general, LD50 refers to the dose expected to kill half of the subjects tested.

Consider `CCc1ccc(C(=O)C(C)CN2CCCCC2)cc1` (stereo not drawn) [eperisone hydrochloride, Eperisone hydrochloride], for which the LD50 in data set [1] (female) was > 750 mg/kg; in data set [1] (male) it was > 1080 mg/kg; in data set [3] (iv, female) it was 60 mg/kg; in data set [3] (iv, male), 51 mg/kg; in data set [3] (po, female), 1300 mg/kg; in data set [3] (po, male) it was 1300 mg/kg. Also, the LD50 turned out to be 43.5 mg/kg in data set [4] (iv, female); 43 mg/kg in data set [4] (iv, male); 940 mg/kg in data set [4] (po, female); 1040 mg/kg in data set [4] (po, male). For the same compound, the “heart rate before administration” value in data set [2] was found to be 97±5 beats/min. Moreover, in data set [5] (acetic anhydride), the “solubility in acetic anhydride” value is listed as “relatively difficultly soluble”. In addition, the solubility in acetone result in data set [5] (acetone) is on record as “difficultly soluble”. For the same compound, the solubility in ethanol result in data set [5] (ethanol) was “relatively easily soluble”. Also, in data set [5] (ether), the solubility in ether result is recorded as “scarcely soluble”. In data set [5] (water, methanol, chloroform or glacial acetic acid), the “solubility in water, methanol, chloroform or glacial acetic acid” value is “easily soluble”. In addition, the solubility in water entry in data set [5] (water, agents used in the pharmacological experiment) is recorded as “water-soluble”. Further, in data set [6], the “reduction in the blood pressure” value is listed as “a significant reduction in the blood pressure was observed”. Besides, the “blood pressure after 3 h” value in data set [6] is 172±3 mmHg. In addition, the “blood pressure before administration” value in data set [6] came out at 202±4 mmHg.

On to `COC(=O)C1=C(C)NC(C)=C(C(=O)OCCN(C)Cc2ccccc2)C1c1cccc([N+](=O)[O-])c1` (stereo not drawn) [nicardipine hydrochloride, Nicardipine hydrochloride, reference compound], for which, in data set [2], the “heart rate before administration” value was determined as 106±7 beats/min. Also, in data set [6], the “reduction in the blood pressure” value was “a significant reduction in the blood pressure was also observed”, the “blood pressure after 3 h” value came out at 164±4 mmHg and the “blood pressure before administration” value is listed as 200±4 mmHg.
